# Experimental data reported in patent publication US20180296456A1, “Decapeptide-12 Modulation of Sirtuin Gene Expression in Epidermal Keratinocyte Progenitors” (Escape Therapeutics, Inc., priority 2017, published 2018).
# Values joined by “and” are separate entries in the source; they are usually repeats but may differ in a detail not shown here. Equal entries are not always repeated. Ends that are not written are not given here.
# Assays:
# [1] = tested on: SIRT7; assay: SIRT7 transcription, semi-quantitative RT-PCR in human epidermal progenitors; assay type: cell-based; conditions: 72 h
# Experimental: (§1) Human neonatal epidermal progenitors (Thermo Fisher Scientific, NY) were seeded in 6-well plates at a density of 2×10^5 cells/well. Each well received 2 ml of Epilife media containing 60 μM calcium chloride (Thermo Fisher Scientific, NY). Plates were incubated in a humidified chamber at 37 degrees Celsius and 5 percent CO2. Twenty-four hours later, cells were treated with various concentrations of oxyresveratrol or decapeptide-12 dissolved in PBS containing 5 percent DMSO. Control wells received vehicle only (5 percent DMSO and PBS). Final concentration of DMSO in each well was 0.05 percent.
# (§2) After a 72 hour incubation period, cells were trypsinized and total RNA extracted, using RNeasy kit (Qiagen, Valencia, Calif.) according to the manufacturer's protocol.
# (§3) RNA concentration was determined using nanodrop (Thermo fisher scientific, NY). Two μg of total RNA were used to synthesize cDNA using oligo dT primers and TaqMan reverse transcription reagents (Thermo fisher scientific, NY). The reaction was carried out in DNA Engine Peltier Thermal Cycler (Bio-Rad, Hercules, Calif.). The annealing temperature was 25 degrees Celsius for 10 minutes, followed by first strand synthesis at 48 degrees Celsius for 1 hour, and heat inactivation at 95 degrees Celsius for 5 minutes.
# (§4) The SIRT1-7 primers (table 1) were designed using Primer3. The semi-quantitative PCR reactions were performed on a DNA Engine Peltier Thermo Cycler (Bio-Rad, Hercules, Calif.). PCR was carried under the following conditions: denaturation at 94 degrees Celsius for 2 minutes and primer extension at 54 degrees Celsius for 30 seconds in 34 cycles for SIRT 1-7 and the housekeeping gene 18S.
# (§5) Samples were run and resolved on a 1.5 percent agarose gel containing 0.5 μg/ml of ethidium bromide and imaged using the FluorChem HD2 Imaging System (Protein simple, San Jose, Calif.). Densitometry analysis was carried out using the AlphaEase FC software (Protein simple, San Jose, Calif.). Intensity ratios were calculated as the intensity value for each gene divided by the intensity value of the internal control gene 18S.
# (§6) The effect of the decapeptides P4, P4A, P4B, and P4C upon the transcription levels of sirtuins 1-7 was evaluated. Table 4 summarizes transcription levels for all four decapeptides with the corresponding genes, at tested concentrations of: 10, 30, 50, 100, and 300 (all in μM).
# [2] = tested on: SIRT4; assay: SIRT4 transcription, semi-quantitative RT-PCR in human epidermal progenitors; assay type: cell-based; conditions: 72 h
# Experimental: as §1, §2, §3, §4, §5, §6
# [3] = MTT cell proliferation assay, fibroblasts; assay type: cell-based, human; conditions: human, MTT, 72 h, read-out: fibroblast proliferation rate after 72 hours
# Experimental: (§7) Proliferation rates for three human cell lines (epidermal progenitors, melanoblasts, and fibroblasts) were determined using a TACS® MTT Cell Proliferation Kit. Cells were seeded at 2.5×10^4/well in 96-well plates in a humidified atmosphere with 5 percent CO2 at 37 degrees Celsius. Twenty-four hours later, the decapeptides were added to the corresponding wells at varying concentrations and incubated for 72 hours. The remainder of the procedure was performed following the manufacturer's protocol.
# [4] = Trypan blue cell viability, 7 days, epidermal progenitors; assay type: cell-based; conditions: human, relative to control, read-out: epidermal progenitor viability after 7 days
# Experimental: (§8) The effect of each of the decapeptides upon cell viability was also tested. In particular, cells were incubated with the decapeptide at various concentrations and then counted for viability relative to the control (untreated cells) using trypan blue. Cytotoxicity was measured according to the following formula:
# (§9) [1−(# of cells in control−# of live cells in test sample)/# of cells in control]×100 percent.
# [5] = in vitro; assay type: cell-based; conditions: human, human epidermal progenitors
# Experimental: Proliferation rates were determined using a TACS® MTT Cell Proliferation Kit (R&D systems, Minneapolis, Minn.). Cells were seeded at 2.5×10^4/well in 96-well plates in a humidified atmosphere with 5 percent CO2 at 37 degrees Celsius. Twenty-four hours later, decapeptide-12 or oxyresveratrol were added to the corresponding wells at varying concentrations (0, 3, 10, 30, 100, 300, and 1000 μM), and cultures were then incubated for 72 hours. The remainder of the procedure was performed following the manufacturer's protocol.
# as §7
# [6] = Trypan blue cell viability, 7 days, melanoblasts; assay type: cell-based; conditions: human, relative to control, read-out: melanoblast viability after 7 days
# Experimental: as §8, §9
# [7] = MTT cell proliferation assay, melanoblasts; assay type: cell-based, human; conditions: human, MTT, 72 h, read-out: melanoblast proliferation rate after 72 hours
# Experimental: as §7
# [8] = tested on: SIRT1; assay: SIRT1 transcription, semi-quantitative RT-PCR in human epidermal progenitors; assay type: cell-based; conditions: 72 h
# Experimental: as §1, §2, §3, §4, §5, §6
# [9] = tested on: SIRT2; assay: SIRT2 transcription, semi-quantitative RT-PCR in human epidermal progenitors; assay type: cell-based; conditions: 72 h
# Experimental: as §1, §2, §3, §4, §5, §6
sequence,measurement,setting,value
"YRSRKYSSWY [decapeptide-12, YRSRKYSSWY]",SIRT7 transcription increase relative to control,[1]; 3 μM,5 ± 1%
same,SIRT7 transcription increase relative to control,[1]; 10 μM,15 ± 4.2%
same,SIRT7 transcription increase relative to control,"[1]; 10 μM, listed as P4",15 ± 4%
same,SIRT7 transcription increase relative to control,[1]; 30 μM,34.4 ± 9.2%
same,SIRT7 transcription increase relative to control,"[1]; 30 μM, listed as P4",34 ± 9%
same,SIRT7 transcription increase relative to control,[1]; 50 μM,61.3 ± 10.2%
same,SIRT7 transcription increase relative to control,"[1]; 50 μM, listed as P4",61 ± 10%
same,SIRT7 transcription increase relative to control,[1]; 100 μM,95.4±14% and 95±14%
same,SIRT7 transcription increase relative to control,"[1]; 100 μM, listed as Deca",95.4 ± 14.2%
same,SIRT7 transcription increase relative to control,"[1]; 100 μM, listed as P4",95 ± 14%
same,SIRT7 transcription increase relative to control,[1]; 300 μM,148 ± 9.6%
same,SIRT7 transcription increase relative to control,"[1]; 300 μM, listed as P4",148 ± 10%
same,SIRT7 transcription increase relative to control,[1]; 500 μM,171.4 ± 8.4%
same,SIRT7 transcription increase relative to control,[1]; 1000 μM,181.1 ± 8.4%
same,SIRT4 transcription increase relative to control,[2]; 3 μM,3 ± 1%
same,SIRT4 transcription increase relative to control,[2]; 10 μM,8.1 ± 4%^
same,SIRT4 transcription increase relative to control,"[2]; 10 μM, listed as P4",8 ± 3%
same,SIRT4 transcription increase relative to control,[2]; 30 μM,12.1 ± 7%
same,SIRT4 transcription increase relative to control,"[2]; 30 μM, listed as P4",12 ± 7%
same,SIRT4 transcription increase relative to control,[2]; 50 μM,41.2 ± 13.1%
same,SIRT4 transcription increase relative to control,"[2]; 50 μM, listed as P4",41 ± 13%
same,SIRT4 transcription increase relative to control,"[2]; 100 μM, listed as Deca",71.4 ± 14.1%
same,SIRT4 transcription increase relative to control,"[2]; 100 μM, listed as P4",71 ± 14%
same,SIRT4 transcription increase relative to control,[2]; 300 μM,115 ± 11.7%
same,SIRT4 transcription increase relative to control,"[2]; 300 μM, listed as P4",115 ± 12%
same,SIRT4 transcription increase relative to control,[2]; 500 μM,145 ± 12.7%
same,SIRT4 transcription increase relative to control,[2]; 1000 μM,151 ± 13.4%
same,"viability at 72 h, 3 µM",[3]; 3 μM,100%
same,"viability at 72 h, 10 µM",[3]; 10 μM,99 ± 1%
same,"viability at 72 h, 30 µM",[3]; 30 μM,99 ± 1%
same,"viability at 72 h, 50 µM",[3]; 50 μM,98 ± 1%
same,"viability at 72 h, 100 µM",[3]; 100 μM,97 ± 1%
same,"viability at 72 h, 300 µM",[3]; 300 μM,97 ± 1%
same,"viability at 72 h, 500 µM",[3]; 500 μM,97 ± 2%
same,"viability at 72 h, 1000 µM",[3]; 1000 μM,96 ± 2%
same,"viability at 168 h, 3 µM",[4]; 3 μM,100%
same,"viability at 168 h, 10 µM",[4]; 10 μM,99 ± 1%
same,"viability at 168 h, 30 µM",[4]; 30 μM,98.4 ± 1%
same,"viability at 168 h, 50 µM",[4]; 50 μM,97.8 ± 1%
same,"viability at 168 h, 100 µM",[4]; 100 μM,97.1 ± 1%
same,"viability at 168 h, 300 µM",[4]; 300 μM,95.6 ± 2%
same,"viability at 168 h, 500 µM",[4]; 500 μM,94.2 ± 2%
same,"viability at 168 h, 1000 µM",[4]; 1000 μM,93.8 ± 2%
same,"viability at 72 h, 3 µM",[5],100%
same,"viability at 72 h, 10 µM",[5],99 ± 1%
same,"viability at 72 h, 30 µM",[5],98 ± 1%
same,"viability at 72 h, 50 µM",[5],97 ± 1%
same,"viability at 72 h, 100 µM",[5],97 ± 1%
same,"viability at 72 h, 300 µM",[5],96 ± 1%
same,"viability at 72 h, 500 µM",[5],96 ± 2%
same,"viability at 72 h, 1000 µM",[5],94 ± 2%
same,"viability at 168 h, 3 µM",[6]; 3 μM,100%
same,"viability at 168 h, 10 µM",[6]; 10 μM,99 ± 1%
same,"viability at 168 h, 30 µM",[6]; 30 μM,98.3 ± 1%
same,"viability at 168 h, 50 µM",[6]; 50 μM,98 ± 1%
same,"viability at 168 h, 100 µM",[6]; 100 μM,97.3 ± 1%
same,"viability at 168 h, 300 µM",[6]; 300 μM,95.2 ± 2%
same,"viability at 168 h, 500 µM",[6]; 500 μM,94.6 ± 2%
same,"viability at 168 h, 1000 µM",[6]; 1000 μM,94 ± 2%
same,"viability at 72 h, 3 µM",[7]; 3 μM,100%
same,"viability at 72 h, 10 µM",[7]; 10 μM,100%
same,"viability at 72 h, 30 µM",[7]; 30 μM,99 ± 1%
same,"viability at 72 h, 50 µM",[7]; 50 μM,98 ± 1%
same,"viability at 72 h, 100 µM",[7]; 100 μM,97 ± 1%
same,"viability at 72 h, 300 µM",[7]; 300 μM,97 ± 1%
same,"viability at 72 h, 500 µM",[7]; 500 μM,95 ± 2%
same,"viability at 72 h, 1000 µM",[7]; 1000 μM,95 ± 2%
same,SIRT1 transcription increase relative to control,[8]; 3 μM,3 ± 1%
same,SIRT1 transcription increase relative to control,[8]; 10 μM,12.2 ± 3.1%^
same,SIRT1 transcription increase relative to control,"[8]; 10 μM, listed as P4",12 ± 3%
same,SIRT1 transcription increase relative to control,[8]; 30 μM,34 ± 6.7%
same,SIRT1 transcription increase relative to control,"[8]; 30 μM, listed as P4",34 ± 7%
same,SIRT1 transcription increase relative to control,[8]; 50 μM,79.2 ± 12%
same,SIRT1 transcription increase relative to control,"[8]; 50 μM, listed as P4",79 ± 12%
same,SIRT1 transcription increase relative to control,[8]; 100 μM,141±11% and 141%
same,SIRT1 transcription increase relative to control,"[8]; 100 μM, listed as Deca",141.2 ± 11%
same,SIRT1 transcription increase relative to control,"[8]; 100 μM, listed as P4",141 ± 11%
same,SIRT1 transcription increase relative to control,[8]; 300 μM,188 ± 12%^
same,SIRT1 transcription increase relative to control,"[8]; 300 μM, listed as P4",188 ± 12%
same,SIRT1 transcription increase relative to control,[8]; 500 μM,205 ± 13.3%
same,SIRT1 transcription increase relative to control,[8]; 1000 μM,213%
same,SIRT1 transcription increase relative to control,"[8]; 1000 μM, listed as Deca",213 ± 13.4%
same,SIRT2 transcription increase relative to control,[9]; 3 μM,1 ± 1%
same,SIRT2 transcription increase relative to control,[9]; 10 μM,4.1 ± 3%
same,SIRT2 transcription increase relative to control,"[9]; 10 μM, listed as P4",4 ± 3%
same,SIRT2 transcription increase relative to control,[9]; 30 μM,11.2 ± 3.7%
same,SIRT2 transcription increase relative to control,"[9]; 30 μM, listed as P4",11 ± 4%
same,SIRT2 transcription increase relative to control,[9]; 50 μM,21.5 ± 4.9%
same,SIRT2 transcription increase relative to control,"[9]; 50 μM, listed as P4",22 ± 5%
same,SIRT2 transcription increase relative to control,"[9]; 100 μM, listed as Deca",35.4 ± 5.5%
same,SIRT2 transcription increase relative to control,"[9]; 100 μM, listed as P4",35 ± 5%
same,SIRT2 transcription increase relative to control,[9]; 300 μM,61.1± 6.8%
same,SIRT2 transcription increase relative to control,"[9]; 300 μM, listed as P4",61 ± 7%
same,SIRT2 transcription increase relative to control,[9]; 500 μM,76 ± 6.1%
same,SIRT2 transcription increase relative to control,[9]; 1000 μM,76 ± 7.1%
